From ChEMBL document CHEMBL4152208, “Synthesis and structure-activity relationships of quinolinone and quinoline-based P2X7 receptor antagonists and their anti-sphere formation activities in glioblastoma cells” (Eur J Med Chem, 2018)
Active and inactive are the calls of the source. The calls are words filed in the database; no cut-off is given here.

Experiments:
Type in all cases: cell-based
[1] = biological target: T1, P2X purinoceptor 7 (Homo sapiens) (UniProt Q99572); test: Antagonist activity at human P2X7 receptor expressed in HEK293 cells assessed as inhibition of BzATP-induced EtBr uptake at 10 uM after 2 hrs by fluorescence assay relative to control
T1 sequence (whole entry): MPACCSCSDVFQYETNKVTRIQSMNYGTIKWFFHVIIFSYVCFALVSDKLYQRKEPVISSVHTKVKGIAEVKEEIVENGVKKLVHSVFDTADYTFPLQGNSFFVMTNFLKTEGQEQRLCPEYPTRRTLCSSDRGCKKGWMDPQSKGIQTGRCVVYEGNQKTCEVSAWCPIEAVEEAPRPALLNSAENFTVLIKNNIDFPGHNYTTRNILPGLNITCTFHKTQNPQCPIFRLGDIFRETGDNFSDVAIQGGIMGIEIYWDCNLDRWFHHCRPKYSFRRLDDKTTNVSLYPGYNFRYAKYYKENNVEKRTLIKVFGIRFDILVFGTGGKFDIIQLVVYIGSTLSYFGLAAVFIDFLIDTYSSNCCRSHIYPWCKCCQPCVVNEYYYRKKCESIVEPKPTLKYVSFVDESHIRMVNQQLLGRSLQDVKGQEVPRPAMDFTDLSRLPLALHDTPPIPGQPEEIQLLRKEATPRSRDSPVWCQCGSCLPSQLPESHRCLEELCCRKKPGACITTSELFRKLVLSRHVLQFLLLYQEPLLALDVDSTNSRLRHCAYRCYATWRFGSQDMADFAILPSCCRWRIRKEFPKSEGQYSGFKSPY

[2] = biological target: T1, P2X purinoceptor 7 (Homo sapiens); test: Antagonist activity at human P2X7 receptor expressed in HEK293 cells assessed as inhibition of BzATP-induced EtBr uptake at 1 uM after 2 hrs by fluorescence assay relative to control
P2X purinoceptor 7 [3] = biological target: T2, P2X purinoceptor 7 (Homo sapiens, UniProt Q99572); test: Antagonist activity at human P2X7 receptor expressed in HEK293 cells assessed as inhibition of BzATP-induced EtBr uptake after 2 hrs by fluorescence assay relative to control
T2 sequence (Q99572 whole entry): T1 sequence (whole entry)

[4] = Cytotoxicity against HEK293 cells expressing human P2X7 receptor assessed as cell survival at 10 uM by MTT assay relative to control; details: read-out: Survival
P2X purinoceptor 7 [5] = biological target: T2, P2X purinoceptor 7; test: Antagonist activity at P2X7 in LPS/IFN gamma differentiated human THP-1 cells assessed as inhibition of BzATP-induced IL-1beta release preincubated for 30 mins followed by BzATP stimulation for 30 mins by ELISA
[6] = biological target: T1, P2X purinoceptor 7 (Homo sapiens); test: Antagonist activity at P2X7 in LPS/IFN gamma differentiated human THP-1 cells assessed as inhibition of BzATP-induced IL-1beta release at 10 uM preincubated for 30 mins followed by BzATP stimulation for 30 mins by ELISA

| Structure (SMILES) | inhibition [1] | inhibition [2] | other results |
| --- | --- | --- | --- |
| COC(=O)c1cc2c(NC(=O)CC34CC5CC(CC(C5)C3)C4)cccc2nc1Cl | 43% | 27% | – |
| COc1ccc(Cn2c(=O)ccc3c(NC(=O)C45CC6CC(CC(C6)C4)C5)cccc32)cc1 | 43% | 29% | – |
| COC(=O)c1cc2c(NC(=O)CC3CCCCC3)cccc2n(Cc2ccc(OC)cc2)c1=O | 86% | 63% | IC50 (P2X purinoceptor 7 [3]): 0.875 µM |
| COC(=O)c1cc2c(NC(=O)c3ccccc3)cccc2n(Cc2ccc(OC)cc2)c1=O | inactive | – | – |
| COC(=O)c1cc2c(NC(=O)C3CCCCC3)cccc2n(Cc2ccc(OC)cc2)c1=O | 88% | 67% | IC50 (P2X purinoceptor 7 [3]): 0.81 µM |
| COC(=O)c1cc2c(NC(=O)CCC3CCCC3)cccc2n(Cc2ccc(OC)cc2)c1=O | 45% | 15% | – |
| COc1ccc(Cn2c(=O)c(C(=O)NCCc3ccc4c(c3)OCO4)cc3c(N)cccc32)cc1 | inactive | – | – |
| COc1ccc(Cn2c(=O)c(C(=O)NCCCc3ccccc3)cc3c(NC(=O)Cc4ccc(Cl)cc4)cccc32)cc1 | inactive | – | – |
| O=C(CC12CC3CC(CC(C3)C1)C2)Nc1cccc2nc(-c3ccccc3)ccc12 | 86% | 78% | IC50 (P2X purinoceptor 7 [3]): 0.447 µM; viability at 10 µM [4]: 98%; IC50 (P2X purinoceptor 7 [5]): 0.434 µM |
| COc1ccc(Cn2c(=O)c(C(=O)NCCc3ccccc3)cc3c(N)cccc32)cc1 | inactive | – | – |
| COc1ccc(Cn2c(=O)c(C(=O)NCCc3ccc(C)cc3)cc3c(NC(=O)Cc4ccccc4)cccc32)cc1 | 13% | – | – |
| COc1ccc(Cn2c(=O)c(C(=O)NCCCc3ccccc3)cc3c(NC(=O)Cc4ccccc4)cccc32)cc1 | inactive | – | – |
| O=C(CC12CC3CC(CC(C3)C1)C2)Nc1cccc2nc(-c3ccc(Cl)cc3)ccc12 | 90% | 89% | IC50 (P2X purinoceptor 7 [3]): 0.123 µM; viability at 10 µM [4]: 98%; IC50 (P2X purinoceptor 7 [5]): 0.178 µM |
| COc1ccc(CCNC(=O)c2cc3c(NC(=O)COc4ccc(Cl)cc4)cccc3n(Cc3ccc(OC)cc3)c2=O)cc1 | inactive | – | – |
| CN([C@@H](Cc1ccc(OS(=O)(=O)c2cccc3cnccc23)cc1)C(=O)N1CCN(c2ccccc2)CC1)S(=O)(=O)c1cccc2cnccc12 | – | 79% | inhibition [6]: 96%; viability at 10 µM [4]: 93% |
| COc1ccc(Cn2c(=O)c(C(=O)N(C)C)cc3c(NC(=O)C45CC6CC(CC(C6)C4)C5)cccc32)cc1 | 54% | 14% | – |
| COC(=O)c1cc2c(NC(=O)C34CC5CC(CC(C5)C3)C4)cccc2nc1Cl | 21% | inactive | – |
| O=C(CC12CC3CC(CC(C3)C1)C2)Nc1cccc2nc(-c3cccc(O)c3)ccc12 | 66% | 36% | – |
| COC(=O)c1cc2c(NC(=O)C34CC5CC(CC(C5)C3)C4)cccc2n(Cc2cccc(OC)c2)c1=O | 55% | 35% | – |
| COc1ccc(Cn2c(=O)c(C(=O)NCCc3ccccc3)cc3c(NC(=O)CCc4ccccc4)cccc32)cc1 | inactive | – | – |

| Structure (SMILES) | inhibition [1] | inhibition [2] | other results |
| --- | --- | --- | --- |
| O=C(CC12CC3CC(CC(C3)C1)C2)Nc1cccc2nc(-c3ccc([N+](=O)[O-])cc3)ccc12 | 94% | 79% | IC50 (P2X purinoceptor 7 [3]): 0.073 µM; viability at 10 µM [4]: 93%; IC50 (P2X purinoceptor 7 [5]): 0.113 µM |
| COC(=O)c1cc2c(NC(=O)C34CC5CC(CC(C5)C3)C4)cccc2n(Cc2ccc(Cl)cc2)c1=O | 88% | 78% | IC50 (P2X purinoceptor 7 [3]): 0.723 µM |
| COc1ccc(CCNC(=O)c2cc3c(NC(=O)CCc4ccccc4)cccc3n(Cc3ccc(OC)cc3)c2=O)cc1 | 7% | – | – |
| COC(=O)c1cc2c(NC(=O)CC34CC5CC(CC(C5)C3)C4)cccc2n(Cc2ccc(OC)cc2)c1=O | 76% | 65% | IC50 (P2X purinoceptor 7 [3]): 0.861 µM |
| CCc1ccc(CCNC(=O)c2cc3c(NC(=O)COc4ccc(Cl)cc4)cccc3n(Cc3ccc(OC)cc3)c2=O)cc1 | inactive | – | – |
| COC(=O)c1cc2c(NC(=O)Cc3ccccc3)cccc2n(Cc2ccc(OC)cc2)c1=O | 43% | 24% | – |
| COc1ccc(Cn2c(=O)c(C(=O)O)cc3c(NC(=O)C45CC6CC(CC(C6)C4)C5)cccc32)cc1 | 41% | 2% | – |
| O=C(CC1CCCCC1)Nc1cccc2nc(Cl)ccc12 | 95% | 90% | IC50 (P2X purinoceptor 7 [3]): 0.385 µM; viability at 10 µM [4]: 92%; IC50 (P2X purinoceptor 7 [5]): 0.335 µM |
| O=C(CC12CC3CC(CC(C3)C1)C2)Nc1cccc2nc(-c3ccccc3O)ccc12 | 69% | 41% | – |
| COc1ccc(Cn2c(=O)c(C(=O)NCCc3ccc(O)c(OC)c3)cc3c(N)cccc32)cc1 | 5% | – | – |
| COc1ccc(Cn2c(=O)c(C(=O)NCCc3ccc(C)cc3)cc3c(NC(=O)CCC4CCCC4)cccc32)cc1 | inactive | – | – |
| CCCC(=O)Nc1cccc2c1cc(C(=O)NCCc1ccc(OC)cc1)c(=O)n2Cc1ccc(OC)cc1 | inactive | – | – |
| COC(=O)c1cc2c(N)cccc2n(Cc2ccc(OC)cc2)c1=O | inactive | – | – |
| COc1ccc(Cn2c(=O)c(C(=O)NCCc3ccc(Cl)cc3)cc3c(NC(=O)COc4cccc(Cl)c4)cccc32)cc1 | inactive | – | – |
| COC(=O)c1cc2c(NC(=O)C34CC5CC(CC(C5)C3)C4)cccc2n(Cc2ccccc2)c1=O | inactive | – | – |
| COc1ccc(Cn2c(=O)c(C(=O)NCCc3ccc4c(c3)OCO4)cc3c(NC(=O)Cc4ccc(Cl)cc4)cccc32)cc1 | inactive | – | – |
| COC(=O)c1cc2c(NC(=O)CCc3ccccc3)cccc2n(Cc2ccc(OC)cc2)c1=O | 56% | 36% | – |
| COc1ccc(Cn2c(=O)c(C(=O)O)cc3c(N)cccc32)cc1 | inactive | – | – |
| COc1ccc(Cn2c(=O)c(C(=O)NCCc3ccc(C)cc3)cc3c(NC(=O)CCc4ccccc4)cccc32)cc1 | inactive | – | – |
| COc1ccc(Cn2c(=O)c(C(=O)NCCc3ccc(Cl)cc3)cc3c(N)cccc32)cc1 | inactive | – | – |

| Structure (SMILES) | inhibition [1] | inhibition [2] | other results |
| --- | --- | --- | --- |
| COc1ccc(Cn2c(=O)c(C(=O)NCCCc3ccccc3)cc3c(NC(=O)CCc4ccccc4)cccc32)cc1 | inactive | – | – |
| COc1ccc(Cn2c(=O)c(C(=O)NCCc3ccc(C)cc3)cc3c(N)cccc32)cc1 | 4% | – | – |
| CCCC(=O)Nc1cccc2c1cc(C(=O)NCCc1ccccc1)c(=O)n2Cc1ccc(OC)cc1 | inactive | – | – |
| CCc1ccc(CCNC(=O)c2cc3c(N)cccc3n(Cc3ccc(OC)cc3)c2=O)cc1 | inactive | – | – |
| COC(=O)c1cc2c(NC(=O)C34CC5CC(CC(C5)C3)C4)cccc2n(Cc2ccc(C#N)cc2)c1=O | inactive | – | – |
| COc1ccc(Cn2c(=O)c(C(=O)NCCc3ccc(Cl)cc3)cc3c(NC(=O)Cc4ccccc4)cccc32)cc1 | inactive | – | – |
| COc1ccc(Cn2c(=O)c(C(=O)OC(C)C)cc3c(NC(=O)C45CC6CC(CC(C6)C4)C5)cccc32)cc1 | 77% | 47% | – |
| CNC(=O)c1cc2c(NC(=O)C34CC5CC(CC(C5)C3)C4)cccc2n(Cc2ccc(OC)cc2)c1=O | 42% | 6% | – |
| COC(=O)c1cc2c(NC(=O)C34CC5CC(CC(C5)C3)C4)cccc2n(Cc2ccc(OC(F)(F)F)cc2)c1=O | 68% | 48% | – |
| COC(=O)c1cc2c(NC(=O)C34CC5CC(CC(C5)C3)C4)cccc2n(Cc2ccc(C)cc2)c1=O | 45% | 30% | – |
| COc1ccc(CC(=O)Nc2cccc3c2cc(C(=O)NCCc2ccc(C)cc2)c(=O)n3Cc2ccc(OC)cc2)cc1 | inactive | – | – |
| COc1ccc(Cn2c(=O)c(C(=O)NCCc3ccc(C)cc3)cc3c(NC(=O)COc4cccc(Cl)c4)cccc32)cc1 | inactive | – | – |
| COc1ccc(CC(=O)Nc2cccc3c2cc(C(=O)NCCc2ccccc2)c(=O)n3Cc2ccc(OC)cc2)cc1 | 8% | – | – |
| COc1ccc(Cn2c(=O)c(C(=O)NCCc3ccc(C)cc3)cc3c(NC(=O)COc4ccc(Cl)cc4)cccc32)cc1 | inactive | – | – |
| COC(=O)c1cc2c(NC(=O)CCC3CCCCC3)cccc2n(Cc2ccc(OC)cc2)c1=O | 57% | 20% | – |
| CCc1ccc(Cn2c(=O)c(C(=O)OC)cc3c(NC(=O)C45CC6CC(CC(C6)C4)C5)cccc32)cc1 | 38% | 28% | – |
| O=C(Nc1cccc2nc(Cl)ccc12)C12CC3CC(CC(C3)C1)C2 | 51% | 11% | – |
| COC(=O)c1cc2c(NC(=O)C34CC5CC(CC(C5)C3)C4)cccc2n(Cc2ccc(Br)cc2)c1=O | 80% | 65% | IC50 (P2X purinoceptor 7 [3]): 0.81 µM |
| COc1ccc(Cn2c(=O)c(C(=O)NCCCc3ccccc3)cc3c(N)cccc32)cc1 | inactive | – | – |
